# Laboratory results: US11419335B2, “N-arylated analogues and uses thereof” (University of Florida Research Foundation, Incorporated, priority 2016, dated 2022)
# Read-outs that look alike come from different tables or passages of the source. Marks after values point to notes of the source that are not given here.
# Legend:
# [1] = test system: Klebsiella pneumoniae (ATCC 13883); test: MIC broth microdilution, K. pneumoniae 13883; assay type: cell-based
# Experimental: (§1) The minimum inhibitory concentration (MIC) for each tested compound was determined by the broth microdilution method as recommended by the Clinical and Laboratory Standards Institute (CLSI). In a 96-well plate, eleven two-fold serial dilutions of each compound were made in a final volume of 100 μL Luria Broth. Each well was inoculated with ˜10^5 bacterial cells at the initial time of incubation, prepared from a fresh log phase culture (OD600 of 0.5 to 1.0 depending on bacterial strain). The MIC was defined as the lowest concentration of compound that prevented bacterial growth after incubating 16 to 18 hours at 37° C. (MIC values were supported by spectrophotometric readings at OD600). DMSO served as our vehicle and negative control in each microdilution MIC assay. DMSO was serially diluted with a top concentration of 1% v/v.
# as §1, with “for each compound was” for “for each tested compound was”, “Standards Institute (CLSI).^6 In a” for “Standards Institute (CLSI). In a”, “concentration of test compound that” for “concentration of compound that”, “37° C. The concentration range tested for each compound during this study was 0.10 to 100 μM. DMSO served” for “37° C. (MIC values were supported by spectrophotometric readings at OD600). DMSO served”, “1% v/v. All MIC values were obtained from a minimum of three independent experiments.” for “1% v/v.”
# MRSE ATCC 35984 biofilms = test: Calgary Biofilm Device assay (MBC/MBEC), MRSE 35984; assay type: cell-based, Staphylococcus epidermidis
# Experimental: The lid of the Calgary device was then removed, washed and transferred to another 96-well plate containing 2-fold serial dilutions of the test compounds (the “challenge plate”). The total volume of media with compound in each well in the challenge plate is 150 μL. […] The lid was then removed from the challenge plate and MBC/MBEC values were determined using different final assays. […] The MBC values were determined as the concentration giving a lack of visible bacterial growth (i.e., turbidity). […] In select experiments, pegs from the Calgary device were removed from lead biofilm eradicators after final incubation, sonicated for 30 minutes in PBS and plated out to determine biofilm cell killing of lead biofilm-eradicating agents (i.e., colony forming unit per milliliter, CFU/mL).
# Using a Calgary Biofilm Device, bacterial biofilms are established on pegs suspended to the bottom of a 96-well plate lid. Following biofilm establishment on lid pegs, lids are then transferred to new 96-well plates containing serial dilutions of test compound and allowed to incubate. After compound treatment, 96-well plate lids with pegs are once again transferred to 96-well plates containing fresh media. During this final phase of the assay, viable biofilms will grow and disperse planktonic cells into the media where they will grow and give a turbid well result. Conversely, wells that have no growth are a result of pegs that had eradicated bacterial biofilms. The lowest concentration at which no turbidity is observed is the minimum biofilm eradication concentration (MBEC). Using the Calgary Biofilm Device, both minimum biofilm eradication concentrations and minimum bactericidal concentrations (MBC) for planktonic bacterial can be determined using one assay from a single bacterial culture (FIG. 3A).
# [2] = test system: MRSA BAA-1707 stationary cultures; test: MRSA persister cell kill kinetics (stationary cultures); assay type: cell-based, Staphylococcus aureus; conditions: 50 μM; after 90 minutes
# Experimental: (§2) An overnight culture of MRSA BAA-1707 was diluted in fresh TSBG (1:13 to 1:20 fold) and allowed to grow with shaking. Once the culture reached stationary phase (4-6 hours), test compounds were added at a final test concentration of 50 μM. The cultures were incubated with shaking at 250 rpm and aliquots were removed and plated out at predetermined time points. Colony forming units (CFU) per milliliter data was recorded and plotted using Graphpad Prism 6.0.
# The panel of membrane-active compounds was also evaluated head-to-head at 50 μM against MRSA BAA-1707 stationary cultures in kinetic killing experiments. Stationary cultures of S. aureus have elevated populations of metabolically dormant persister cells^36,37 and using this experiment, we could get multiple early time points to see if 1 and 2 were rapid killers of MRSA persister cells.
# as §2, with “different” for “predetermined”
# MRSA BAA-1707 biofilms = test: Live/Dead staining of MRSA biofilms; assay type: cell-based, Staphylococcus aureus
# Experimental: A mid-log culture of MRSA BAA-1707 was diluted 1:1000-fold and 500 μL was transferred to each compartment of a four-compartment CELLview dish (Greiner Bio-One 627871). The dish was then incubated for 24 hours at 37° C. to establish MRSA-1707 biofilms. After this time, the cultures were removed and the plate was washed with 0.9% saline. The dish was then treated with test compounds in fresh media at various concentrations. DMSO was used as a negative control in this assay. The dish was incubated with the test compound for 24 hours at 37° C. After this time, the cultures were removed and the dish was washed with 0.9% saline for 2 minutes. Saline was then removed and 500 μL of the stain (Live/Dead BacLight Viability Kit, Invitrogen) were added for 15 minutes and left in the dark. After this time, the stain was removed and the dish was washed twice with 0.9% saline. Then the dish was fixed with 500 μL 4% paraformaldehyde in PBS for 30 minutes. Images of remaining MRSA biofilms were then taken with a fluorescence microscope.
# C. neoformans ATCC 66031 = test: Minimum fungicidal concentration assay, C. neoformans; assay type: cell-based; conditions: Table 2B
Compound,"MRSE 35984 MBEC (MRSE ATCC 35984 biofilms; Table 2, CBD assay, biofilm)","MRSE 35984 MBC (MRSE ATCC 35984 biofilms; Table 2A, CBD assay)","MRSE 35984 MBEC (MRSE ATCC 35984 biofilms; Table 2A, CBD assay)",MIC K. pneu. 13883 ([1]; Table 4),C. neoformans 66031 MBC (C. neoformans ATCC 66031),further results
"CCCCCCCCCCCCCCCCn1cc[n+](Cc2ccccc2)c1C [NH125, 3-benzyl-1-hexadecyl-2-methyl-1H-imidazol-3-ium bromide, reference compound]",5.9 µM,–,–,–,–,"MIC ([1]; Klebsiella pneumoniae, ATCC13883, Table 1, read-out: MIC K. pneumoniae 13883): 18.8 µM; MIC ([1]; Klebsiella pneumoniae, ATCC13883, Table 4, read-out: MIC K. pneu. 13883): 18.8 µM; MBC (MRSE ATCC 35984 biofilms; Staphylococcus epidermidis, Table 2, CBD assay, planktonic cells): 15.6 µM; reduction of stationary MRSA cells [2]: ~1 logs; clearance of MRSA biofilms (fluorescence images) (MRSA BAA-1707 biofilms; FIG. 4, 24 hours after treatment): potent clearance of MRSA biofilms; clearance of established biofilms (Live/Dead staining) (MRSA BAA-1707 biofilms; at 31.3 μM): effective clearance of established biofilms"
CCCCCCCCCCCCCCCCn1cc[n+](Cc2cccc(F)c2)c1C.[Br-] [Compound 18],–,11.7^a/ μM,11.7^a μM,–,–,–
"CCCCCCCCCCCCCCCC[N+](C)(C)Cc1ccccc1.[Cl-] [BAC-16, reference compound]",–,–,–,9.38a micromolar,6.25 µM,–
CCCCCCCCCCCCCCCCn1cc[n+](CCO)c1C.[Br-] [Compound 11],–,3.9/3.9 μM,3.9/3.9 μM,18.8a micromolar,3.13 µM,–
"CCCCCCCCCCCC[N+](C)(C)CC[N+](C)(C)CC[N+](C)(C)CCCCCCCCCCCC [QAC-10, reference compound]",31.3/31.3 μM,31.3 µM⁻¹,31.3 µM,25 µM,–,"MIC ([1]; Table 1, read-out: MIC K. pneumoniae 13883): 25 µM; MBEC, MRSE biofilms (MRSE ATCC 35984 biofilms; MRSE ATCC 35984): 31.3 µM; MRSE 35984 MBC (MRSE ATCC 35984 biofilms; Table 2, CBD assay, planktonic cells): 31.3/31.3 μM"
CCCCCCCCCCCCCCCCn1cc[n+](C)c1C.[I-] [Compound 8],–,3.0^a/ μM,3.0^a μM,12.5 µM,6.25 µM,–
